# Laboratory results taken from patent US20240216344A1, “THIAZOLIDINEDIONE ANALOGS FOR THE TREATMENT OF NAFLD AND METABOLIC DISEASES” (Cirius Therapeutics, Inc., priority 2019, published 2024).
# How the values were obtained:
# MPC = biological target: T1, MPC (Homo sapiens, UniProt O95563+Q9Y5U8); experiment: Relative binding affinity for the MPC (FIG. 8)
# T1 sequence (Q9Y5U8 1-109): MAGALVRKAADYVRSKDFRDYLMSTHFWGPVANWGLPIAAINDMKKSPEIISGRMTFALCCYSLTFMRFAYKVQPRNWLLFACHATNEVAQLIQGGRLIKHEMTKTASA
# T1 sequence (O95563 1-127): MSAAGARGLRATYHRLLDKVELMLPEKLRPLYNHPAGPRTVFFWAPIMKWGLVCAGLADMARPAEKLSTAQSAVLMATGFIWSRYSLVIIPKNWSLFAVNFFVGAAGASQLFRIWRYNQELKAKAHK
# [1] = tested on: mouse model of NASH (HTF-C diet); experiment: NASH (HTF-C) diet mice: serum small RNA sequencing; format: in vivo; conditions: HTF-C diet containing 331 ppm
# Procedure: To begin evaluating the exosome cargo of MSDC-0602K-treated mice, WT mice were fed with either a low fat (LF) control diet (Research Diets D09100304) or high trans-fat, fructose, cholesterol (HTF-C) diet composed of 40% trans-fat, 20% fructose, 2% cholesterol (Research Diets D09100301).
# Total RNA was isolated from 400 μL of serum and small RNA sequencing was performed by adapter ligation, cDNA synthesis and size selection of 145-160 base pairs. Sequencing was then performed on an Illumina HiSeq3000.
# Heat map miRNAs (˜230 miRNAs) were selected by filtering data for 2-fold or greater change and FDR<0.1 comparing LF to HTF-C diet (not shown). […] Dysregulation of a number of these miRNAs has been previously identified in liver or other fibrotic diseases.
# [2] = tested on: diet-induced obese (60% HF diet) LS-MPC2−/− and WT (fl/fl) mice; experiment: Single gavage dose in diet-induced obese WT and LS-MPC2−/− mice: GTT, plasma insulin, plasma ALT, liver qPCR; format: in vivo; conditions: for glucose tolerance (GTT): 20 h after a single dose of 30 mg/kg
# Procedure: 8 week old WT and LS-MPC2−/− mice were fed a diet of 60% fat (Research Diets D12492) for 20 weeks to induce obesity and insulin resistance. Intraperitoneal glucose tolerance tests (GTT) were performed after a 4 h fast by injection of 1 g/kg D-glucose in saline i.p. to assess glucose tolerance. 3 days after the initial GTT, mice were randomized to receive a single gavage of either vehicle (1% CMC, 0.01% Tween-80) or 30 mg/kg MSDC-0602K. Plasma insulin was measured by Singulex assay and plasma ALT levels were measured by commercially-available kits (Teco Diagnostics). qPCR was performed by isolation of total RNA with RNA-Bee and reverse transcription with a high-capacity cDNA synthesis kit (Invitrogen). qPCR was performed on an Applied Biosystems real-time thermocycler.
# WT (fl/fl) and LS-MPC2−/− mice were put on 60% HF diet and became equally obese. […] (FIGS. 1A-1C).
# [3] = Phase 1 clinical trials in healthy volunteers (PK, safety); format: in vivo, human; conditions: 126 healthy volunteers
smiles,measurement,setting,value
COc1cccc(C(=O)COc2ccc(CC3SC(=O)NC3=O)cc2)c1 (stereo not drawn) [MSDC-0602],binding to the MPC,MPC,"maintain, and in some cases improve"
same,serum miRNAs altered in a mouse model of NASH,[1],largely corrected
same,glucose tolerance (GTT),[2]; LS-MPC2−/− mice,no improvement in glucose tolerance
same,beneficial effects on markers of liver injury,"[2]; LS-MPC2−/− mice, acute treatment",refractory
same,glucose tolerance (GTT),[2]; WT mice,improved glucose tolerance
same,gene expression for hepatic stellate cell activation and fibrotic scar formation,"[2]; WT mice, single dose",decreased gene expression
same,plasma ALT concentrations,"[2]; WT mice, single dose",decreased plasma ALT concentrations
same,plasma insulin values,"[2]; both WT and LS-MPC2−/− mice, single dose 30 mg/kg",decreased
same,"deaths, serious or severe adverse events, discontinuations due to adverse events",[3],"abdominal bloating. No deaths, serious adverse events, severe adverse"
